We go through four molecules from US4287190A, “Complexes of bivalent copper” (priority 1979, dated 1981).

In one test the test system is Carrageenan paw oedema. As to the kind of experiment: Carrageenan-induced paw oedema in rats, topically applied copper-salicylates. The conditions noted are these: topical. A general note: In the carrageenan paw model, swelling and tenderness develop within hours.
The subject of a further test is Zymosan paw oedema. As to the kind of experiment: Zymosan-induced paw oedema in rats, topically applied copper-salicylates. The conditions noted are these: topical, DMSO-glycerol 4:1 v/v, 5 ml/kg.
In test [1] the test system is artificially induced inflammation in rats (sodium carrageenan). As to the kind of experiment: Carrageenan foot swelling after topical treatment (Example 5, FIG. 2). Format: in vivo, Male Wistar rats. The conditions noted are these: topical, 154, 231, 462 and 770 mg, about 6 hours before carrageenan. As to the method:
Male Wistar rats (average weight 250 g) were anaesthetised with diethyl ether and an area of c. 20 sq.cm was shaven high on their backs. The rats were then separated into 7 groups. Group 1, the control rats were not treated. Group 2 rats were treated by the application of a mixture of alcohol and glycerol (4:1), the carrier used for the compound Cu[H Sal]2. C2 H5 OH. Group 3 rats were treated with a 7% w/v solution of salicylic acid in a mixture of alcohol and glycerol (4:1). Group 4, 5, 6 and 7 rats were treated with amounts of Cu[H Sal]2. C2 H5 OH composition prepared according to example 3 containing 154 mg, 231 mg, 462 mg, and 770 mg respectively, of Cu[H Sal]2. C2 H5 OH.
About 6 hours after the topical treatment of the rats, inflammation was induced in a foot of each rat in each of the groups by the injection of 0.1 ml of 1% saline solution of sodium carrageenan into a foot pad of each rat. The inflammation of the feet of the rats in each group was then monitored by the swelling of the feet with a micrometer screw-gauge.
The results are shown in FIG. 2 wherein the curves represent the increase in paw thickness of the rats with time after the injection of the inflammatory agent. The curves 1 to 7 represent the swelling of the paws of the rats of groups 1 to 7 respectively.

Test [2] deals with polyarthritis induced in rats with Mycobacterium tuberculosis in squalane. The experiment in a line: Polyarthritis induced with Mycobacterium tuberculosis in squalane. Particulars: Cu[H Sal]2. DMSO formulation. Format: in vivo.
The mark [3] stands for this setting: Wistar, 2 Hour, DMSO-glycerol 4:1 v/v, 5 ml/kg.
[4] abbreviates: Wistar, 4 Hour, DMSO-glycerol 4:1 v/v, 5 ml/kg.
The mark [5] stands for this setting: DA × Lewis, 2 Hour, DMSO-glycerol 4:1 v/v, 5 ml/kg.
Setting [6] is: DA × Lewis, 4 Hour, DMSO-glycerol 4:1 v/v, 5 ml/kg.

Method for Carrageenan paw oedema: All materials applied to shaved dorsal skin
in vehicle (= DMSO--glycerol), 4:1 v/v, 5 ml/kg except as
*Vehicle = ethanolglycerol (4:1 v/v)

Consider `CC(=O)[O-].CC(=O)[O-].[Cu+2]` [Cu(OAc)], for which the results for the “% Inhibition of paw oedema induced with Carrageenan” value (from here on “% Inhibition … with Carrageenan”) in the test on Carrageenan paw oedema (setting [3]) and in the test with Carrageenan paw oedema (setting [4]) were 04% and 11%, respectively. The “% Inhibition of paw oedema induced with Zymosan” value (shortened to “% Inhibition … with Zymosan”) in the test with Zymosan paw oedema (DA × Lewis, 2 Hour) turned out to be 14%; with Zymosan paw oedema (DA × Lewis, 4 Hour) it was 04%; in the test with Zymosan paw oedema (Wistar, 1 Hour), 12%; in the test on Zymosan paw oedema (Wistar, 2 Hour) it was 12%.

As to “copper salicylate ethanolate [Cu[H Sal]2. C2 H5 OH]”, the “anti-inflammatory effect (increase in paw thickness with time)” value in test [1] is listed as “clearly shows the anti-inflammatory effect”. In addition, the “% Inhibition … with Carrageenan” value with Carrageenan paw oedema (Wistar, 2 Hour, ethanol-glycerol 4:1 v/v, 5 ml/kg) is reported as 24%; with Carrageenan paw oedema (Wistar, 2 Hour, ethanol-glycerol 4:1 v/v, 15 ml/kg) it was 58%; in the test with Carrageenan paw oedema (Wistar, 4 Hour, ethanol-glycerol 4:1 v/v, 5 ml/kg), 32%; in the test on Carrageenan paw oedema (Wistar, 4 Hour, ethanol-glycerol 4:1 v/v, 15 ml/kg), 53%.

Take `O=C(O)c1ccccc1O` [Salicylic acid (alone), Salicylic acid]: the “% Inhibition … with Carrageenan” value in the test with Carrageenan paw oedema (setting [5]) was found to be 44%; in the test on Carrageenan paw oedema (setting [6]), 32%; in the test with Carrageenan paw oedema (setting [3]), 14%; in the test with Carrageenan paw oedema (setting [4]) it was 18%. Also, the “% Inhibition … with Zymosan” value in the test with Zymosan paw oedema (DA × Lewis, 2 Hour) is -08%; with Zymosan paw oedema (DA × Lewis, 4 Hour), -05%; in the test on Zymosan paw oedema (Wistar, 1 Hour), 22%; in the test with Zymosan paw oedema (Wistar, 2 Hour), 16%.

Regarding `CS(C)=O.O=C([O-])c1ccccc1O.O=C([O-])c1ccccc1O.[Cu+2]` [Cu[H Sal]2 . DMSO, copper salicylate DMSO], the “% Inhibition … with Carrageenan” value was 47% with Carrageenan paw oedema (setting [5]), 39% in the test on Carrageenan paw oedema (setting [6]), 46% with Carrageenan paw oedema (setting [3]) and 53% in the test on Carrageenan paw oedema (setting [4]). Besides, the “% Inhibition … with Zymosan” value worked out at 36% in the test with Zymosan paw oedema (DA × Lewis, 2 Hour); 22% in the test on Zymosan paw oedema (DA × Lewis, 4 Hour); 43% in the test on Zymosan paw oedema (Wistar, 1 Hour); 21% in the test on Zymosan paw oedema (Wistar, 2 Hour). Moreover, the “effect on the progress of polyarthritis” value in test [2] is listed as “effective on the progress of polyarthritis”.
